Data from patent US7919508B2, “3-piperidinylisochroman-5-ols as dopamine agonists” (Aventis Pharmaceuticals Inc., priority 2004, dated 2011).
Structures can show the parent of a compound that is named as a salt.

Columns and labels:
[1] = molecular target: T1, human dopamine D1 receptor (Homo sapiens, UniProt P21728); assay: [3H]-SCH-23390 binding to cloned human dopamine D1 receptors (CHO cell membranes); conditions: competitive binding, [3H]-SCH-23390, cloned human D1 in CHO membranes; read-out: D1 affinity Ki
T1 construct: A 1.4 Kb Hind III to Xho I fragment was subcloned into the vector pMMLV; expressed in transfected cells; host or cells: CHO cells, clone CHO-D1M#9 (plasmid pHD1MMLV), membranes
T1 sequence (P21728 whole entry, the tested form may be a part): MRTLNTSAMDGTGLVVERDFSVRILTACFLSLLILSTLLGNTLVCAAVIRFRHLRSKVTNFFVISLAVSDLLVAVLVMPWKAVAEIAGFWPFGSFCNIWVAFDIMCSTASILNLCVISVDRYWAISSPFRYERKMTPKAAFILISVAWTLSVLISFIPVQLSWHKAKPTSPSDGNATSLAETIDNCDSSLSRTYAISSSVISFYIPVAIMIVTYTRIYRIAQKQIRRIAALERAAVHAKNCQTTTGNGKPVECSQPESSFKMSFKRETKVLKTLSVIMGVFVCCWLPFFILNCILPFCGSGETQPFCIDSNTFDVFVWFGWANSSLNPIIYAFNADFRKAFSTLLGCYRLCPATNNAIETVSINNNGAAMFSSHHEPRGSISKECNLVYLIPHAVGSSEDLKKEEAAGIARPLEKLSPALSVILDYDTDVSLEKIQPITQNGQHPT
Protocol: [^3H]-SCH-23390 Binding to Cloned Human Dopamine D1 Receptors
Determination of relative binding affinity of potential neuropsychiatric and other agents for the human dopamine D1 receptor.
The human D, cDNA was obtained from the laboratory of Dr. Marc Caron in the vector pCMV5. A 1.4 Kb Hind III to Xho I fragment was subcloned into the vector pMMLV. The plasmid pHD1MMLV was then sequenced completely. Transient transfections in COS-7 cells were performed and D1 specific binding was obtained. The construct pHD1MMLV was then transfected stably into CHO cells and 72 G418-resistant clones were isolated. High expressors were identified by mRNA dot blot analysis. Six high expressors were further characterized by binding and then clone CHO-D1M#9 was chosen for detailed pharmacological characterization. This clone was then grown in suspension culture for the purpose of obtaining enough protein to accommodate several months of screening.
B. Cell Culture Conditions
• 1. […] Cells are transferred to suspension culture when at least […] are available (this allows for 300,000 cells/ml in a 50 ml spinner flask; this is the ideal suspension density). Cells are removed from flasks with trypsin, spun down at 1000×G and resuspended the pellet in fresh medium: • 50% CHO-SFM-II+50% Ham's F12 w/10% FBS (final FBS conc. 5%)+400 μg/ml G418+1% P/S. • 3. After the transfer to suspension culture, growth is monitored and cell viability is assessed using trypan blue exclusion. Total and viable cell count on 5 sectors of the hemocytometer are recorded. When the viable cell density reaches 600,000 cell/ml, the volume is doubled. • 4. After 1 week of growth in the 50/50 medium, the cells are spun down and transferred to a new spinner flask and replaced with 75% CHO-SFM II/25% Ham's F12+10% FBS plus the pen-strep and G418. Thereafter every 3 days, the medium is replaced with new medium containing a decreasing amount of FBS as follows:
• 5. The final maintenance culturing medium is made up as follows: • A stock mixture of 10 ml of pen-strep, 0.5 ml of […] (active; final concentration: 200 μg/ml) G418 and 1 ml of FBS are mixed and filtered and refrigerated. A volume (11.5 ml) of this mixture is added to a freshly opened 1 L bottle of CHO-SFM II. C. Membrane Preparation
Cells are harvested into 250 ml centrifuge tubes and spun down at 1200×G. The medium is removed and 100 ml PBS (phosphate-buffered saline) is added to each centrifuge tube; cells are resuspended and spun down again. The PBS is removed and the final pellet is homogenized with a polytron on ice at a medium setting.
The membrane suspension is diluted in water and samples (10, 50 and 100 μl; q.s. to 100 μl with water) are diluted with 100 μl of 1% SDS. The sample is vortexed and allowed to stand for 5 min. Two aliquots each of the solubilized protein sample are placed in clean 13×100 test tubes for the assay. Instructions are followed as outlined in the BioRad DC protein determination kit (Catalog # 500-0112). OD readings that fall between 0.1-0.5 (mid-range of standard curve) should typically be used for calculations. Protein concentrations are calculated from a standard curve using bovine serum albumin as standard by linear regression and interpolation.
Following cell harvesting and protein determination, the homogenate is diluted with 10% DMSO to the correct volume based on Bmax and relative size of individual experiments to be conducted. The concentrated protein is stored in cryogenic vials in aliquots of 1-1.5 ml. Samples may be stored in −80° C. freezer or in liquid nitrogen.

[2] = molecular target: human dopamine D2Long (D2L) receptors (Homo sapiens, UniProt P14416)
Sequence of human dopamine D2Long (D2L) receptors (P14416 whole entry): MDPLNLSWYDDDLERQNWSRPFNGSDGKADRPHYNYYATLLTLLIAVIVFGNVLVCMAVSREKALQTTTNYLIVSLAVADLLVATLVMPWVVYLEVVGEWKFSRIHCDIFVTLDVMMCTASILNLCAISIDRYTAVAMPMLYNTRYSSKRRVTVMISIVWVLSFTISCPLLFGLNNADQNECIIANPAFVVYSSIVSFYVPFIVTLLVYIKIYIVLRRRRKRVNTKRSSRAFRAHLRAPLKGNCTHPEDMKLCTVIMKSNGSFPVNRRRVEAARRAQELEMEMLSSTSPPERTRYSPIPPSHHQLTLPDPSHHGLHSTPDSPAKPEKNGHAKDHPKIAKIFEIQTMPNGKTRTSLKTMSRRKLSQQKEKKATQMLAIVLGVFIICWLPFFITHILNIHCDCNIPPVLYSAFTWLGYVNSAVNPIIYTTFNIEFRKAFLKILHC

Ki [1] | Ki [2] | SMILES
0.274 µM | ≥ 100 µM | CCC(NC(=O)c1ccc(C)cc1)C(C)CN1CCC([C@@H]2Cc3c(ccc(C)c3O)[C@H](CN)O2)CC1 (stereo partly drawn) [Example 14, N-{3-[4-((1R,3S)-1-Aminomethyl-5-hydroxy-6-methyl-isochroman-3-yl)-piperidin-1-yl]-1-ethyl-2-methyl-propyl}-4-methyl-benzamide dihydrochloride]
0.244 µM | 0.389 µM | Cc1ccc2c(c1O)C[C@@H](C1CCN(CCC(C)NC(=O)c3ccc(-c4ccccc4)cc3)CC1)O[C@H]2CN (stereo partly drawn) [Example 18, Biphenyl-4-carboxylic acid {3-[4-((1R,3S)-1-aminomethyl-5-hydroxy-6-methyl-isochroman-3-yl)-piperidin-1-yl]-1-methyl-propyl}-amide dihydrochloride]
0.24 µM | 0.638 µM | Cc1ccc2c(c1O)C[C@@H](C1CCN(CCC(C)NC(=O)c3ccc([N+](=O)[O-])cc3)CC1)O[C@H]2CN (stereo partly drawn) [Example 24, N-{3-[4-((1R,3S)-1-Aminomethyl-5-hydroxy-6-methyl-isochroman-3-yl)-piperidin-1-yl]-1-methyl-propyl}-4-nitro-benzamide dihydrochloride]
0.361 µM | ≥ 10 µM | Cc1ccc2c(c1O)C[C@@H](C1CCN(CC(C)C)CC1)O[C@H]2CN [Example 40, (1R,3S)-1-Aminomethyl-3-(1-isobutyl-piperidin-4-yl)-6-methyl-isochroman-5-ol dihydrochloride]
0.398 µM | ≥ 10 µM | Cc1ccc2c(c1O)C[C@@H](C1CCN(CC(C)(C)C)CC1)O[C@H]2CN [Example 42, (1R,3S)-1-Aminomethyl-3-[1-(2,2-dimethyl-propyl)-piperidin-4-yl]-6-methyl-isochroman-5-ol dihydrochloride]
0.0473 µM | 0.367 µM | Cc1ccc2c(c1O)C[C@@H](C1CCN(Cc3ccc(F)cc3F)CC1)O[C@H]2CN [Example 50, (1R,3S)-1-Aminomethyl-3-[1-(2,4-difluoro-benzyl)-piperidin-4-yl]-6-methyl-isochroman-5-ol dihydrochloride]
0.156 µM | – | Cc1ccc2c(c1O)C[C@@H](C1CCN(C(C)c3ccccc3)CC1)O[C@H]2CN (stereo partly drawn) [Example 51, (1R,3S)-1-Aminomethyl-6-methyl-3-[1-(1-phenyl-ethyl)-piperidin-4-yl]-isochroman-5-ol dihydrochloride]
0.113 µM | ≥ 10 µM | Cc1ccc2c(c1O)C[C@@H](C1CCN(Cc3ccccn3)CC1)O[C@H]2CN [Example 52, (1R,3S)-1-Aminomethyl-6-methyl-3-(1-pyridin-2-ylmethyl-piperidin-4-yl)-isochroman-5-ol dihydrochloride]
0.198 µM | 0.576 µM | Cc1ccccc1CN1CCC([C@@H]2Cc3c(ccc(C)c3O)[C@H](CN)O2)CC1 [Example 64, (1R,3S)-1-Aminomethyl-6-methyl-3-[1-(2-methyl-benzyl)-piperidin-4-yl]-isochroman-5-ol dihydrochloride]
0.0967 µM | 0.232 µM | COc1ccccc1CN1CCC([C@@H]2Cc3c(ccc(C)c3O)[C@H](CN)O2)CC1 [Example 68, (1R,3S)-1-Aminomethyl-3-[1-(2-methoxy-benzyl)-piperidin-4-yl]-6-methyl-isochroman-5-ol dihydrochloride]
0.159 µM | 0.266 µM | Cc1ccc2c(c1O)C[C@@H](C1CCN(Cc3ccccc3C(F)(F)F)CC1)O[C@H]2CN [Example 72, (1R,3S)-1-Aminomethyl-6-methyl-3-[1-(2-trifluoromethyl-benzyl)-piperidin-4-yl]-isochroman-5-ol dihydrochloride]
0.081 µM | 0.31 µM | Cc1ccc2c(c1O)C[C@@H](C1CCN(Cc3cccc(C(F)(F)F)c3Cl)CC1)O[C@H]2CN [Example 79, (1R,3S)-1-Aminomethyl-3-[1-(2-chloro-3-trifluoromethyl-benzyl)-piperidin-4-yl]-6-methyl-isochroman-5-ol dihydrochloride]
0.0487 µM | 0.565 µM | Cc1ccc2c(c1O)C[C@@H](C1CCN(Cc3cccc(C(F)(F)F)c3F)CC1)O[C@H]2CN [Example 80, (1R,3S)-1-Aminomethyl-3-[1-(2-fluoro-3-trifluoromethyl-benzyl)-piperidin-4-yl]-6-methyl-isochroman-5-ol dihydrochloride]
0.0287 µM | 0.343 µM | Cc1ccc2c(c1O)C[C@@H](C1CCN(Cc3cc(C(F)(F)F)ccc3F)CC1)O[C@H]2CN [Example 81, (1R,3S)-1-Aminomethyl-3-[1-(2-fluoro-5-trifluoromethyl-benzyl)-piperidin-4-yl]-6-methyl-isochroman-5-ol dihydrochloride]
0.0156 µM | ≥ 10 µM | Cc1ccc2c(c1O)C[C@@H](C1CCN(Cc3ccc(C(F)(F)F)c(F)c3)CC1)O[C@H]2CN [Example 82, (1R,3S)-1-Aminomethyl-3-[1-(3-fluoro-4-trifluoromethyl-benzyl)-piperidin-4-yl]-6-methyl-isochroman-5-ol dihydrochloride]
0.0159 µM | 0.611 µM | Cc1ccc2c(c1O)C[C@@H](C1CCN(Cc3ccc(F)c(C(F)(F)F)c3)CC1)O[C@H]2CN [Example 83, (1R,3S)-1-Aminomethyl-3-[1-(4-fluoro-3-trifluoromethyl-benzyl)-piperidin-4-yl]-6-methyl-isochroman-5-ol dihydrochloride]
0.033 µM | 0.45 µM | Cc1ccc2c(c1O)C[C@@H](C1CCN(Cc3cc(F)cc(C(F)(F)F)c3)CC1)O[C@H]2CN [Example 84, (1R,3S)-1-Aminomethyl-3-[1-(3-fluoro-5-trifluoromethyl-benzyl)-piperidin-4-yl]-6-methyl-isochroman-5-ol dihydrochloride]
0.156 µM | – | Cc1ccc2c(c1O)C[C@@H](C1CCN(C(=O)N(c3ccccc3)c3ccccc3)CC1)O[C@H]2CN [Example 130, 4-((1R,3S)-1-Aminomethyl-5-hydroxy-6-methyl-isochroman-3-yl)-piperidine-1-carboxylic acid diphenylamide hydrochloride]
0.11 µM | – | CCCN(C)C[C@@H]1O[C@H](C2CCN(Cc3ccc(C(F)(F)F)cc3)CC2)Cc2c1ccc(C)c2O [Example 184, (1R,3S)-6-Methyl-1-[(methyl-propyl-amino)-methyl]-3-[1-(4-trifluoromethyl-benzyl)-piperidin-4-yl]-isochroman-5-ol]
3.1 µM | – | C=CCN(CC=C)C[C@@H]1O[C@H](C2CCN(Cc3ccc(C(F)(F)F)cc3)CC2)Cc2c1ccc(C)c2O [Example 185, (1R,3S)-1-Diallylaminomethyl-6-methyl-3-[1-(4-trifluoromethyl-benzyl)-piperidin-4-yl]-isochroman-5-ol]
1.91 µM | – | C=CCNC[C@@H]1O[C@H](C2CCN(Cc3ccccc3)CC2)Cc2c1ccc(C)c2O [Example 186, (1R,3S)-1-Allylaminomethyl-3-(1-benzyl-piperidin-4-yl)-6-methyl-isochroman-5-ol]
2.64 µM | – | C=CCN(CC=C)C[C@@H]1O[C@H](C2CCN(Cc3ccccc3)CC2)Cc2c1ccc(C)c2O [Example 187, (1R,3S)-3-(1-Benzyl-piperidin-4-yl)-1-diallylaminomethyl-6-methyl-isochroman-5-ol]
1.7 µM | – | Cc1ccc2c(c1O)C[C@@H](C1CCN(C(C(=O)O)c3ccccc3)CC1)O[C@H]2CN (stereo partly drawn) [Example 195, [4-((1R,3S)-1-Aminomethyl-5-hydroxy-6-methyl-isochroman-3-yl)-piperidin-1-yl]-phenylacetic acid dihydrobromide]
